In the assay the target is Homeodomain-interacting protein kinase 1 (Homo sapiens) (UniProt Q86Z02). Put plainly: inhibition of human HIPK1 (Myak) activity – biochemical, Z'-LYTE, FRET, protease-coupled, direct format, dose response (AID 1671292). The following applies: Z'-LYTE FRET kinase assay, recombinant HIPK1.

The text below walks through data of PubChem BioAssay AID1671292.

Each structure is given as a SMILES string.

Chain of Homeodomain-interacting protein kinase 1 (Homo sapiens) (Q86Z02 whole entry, looked up): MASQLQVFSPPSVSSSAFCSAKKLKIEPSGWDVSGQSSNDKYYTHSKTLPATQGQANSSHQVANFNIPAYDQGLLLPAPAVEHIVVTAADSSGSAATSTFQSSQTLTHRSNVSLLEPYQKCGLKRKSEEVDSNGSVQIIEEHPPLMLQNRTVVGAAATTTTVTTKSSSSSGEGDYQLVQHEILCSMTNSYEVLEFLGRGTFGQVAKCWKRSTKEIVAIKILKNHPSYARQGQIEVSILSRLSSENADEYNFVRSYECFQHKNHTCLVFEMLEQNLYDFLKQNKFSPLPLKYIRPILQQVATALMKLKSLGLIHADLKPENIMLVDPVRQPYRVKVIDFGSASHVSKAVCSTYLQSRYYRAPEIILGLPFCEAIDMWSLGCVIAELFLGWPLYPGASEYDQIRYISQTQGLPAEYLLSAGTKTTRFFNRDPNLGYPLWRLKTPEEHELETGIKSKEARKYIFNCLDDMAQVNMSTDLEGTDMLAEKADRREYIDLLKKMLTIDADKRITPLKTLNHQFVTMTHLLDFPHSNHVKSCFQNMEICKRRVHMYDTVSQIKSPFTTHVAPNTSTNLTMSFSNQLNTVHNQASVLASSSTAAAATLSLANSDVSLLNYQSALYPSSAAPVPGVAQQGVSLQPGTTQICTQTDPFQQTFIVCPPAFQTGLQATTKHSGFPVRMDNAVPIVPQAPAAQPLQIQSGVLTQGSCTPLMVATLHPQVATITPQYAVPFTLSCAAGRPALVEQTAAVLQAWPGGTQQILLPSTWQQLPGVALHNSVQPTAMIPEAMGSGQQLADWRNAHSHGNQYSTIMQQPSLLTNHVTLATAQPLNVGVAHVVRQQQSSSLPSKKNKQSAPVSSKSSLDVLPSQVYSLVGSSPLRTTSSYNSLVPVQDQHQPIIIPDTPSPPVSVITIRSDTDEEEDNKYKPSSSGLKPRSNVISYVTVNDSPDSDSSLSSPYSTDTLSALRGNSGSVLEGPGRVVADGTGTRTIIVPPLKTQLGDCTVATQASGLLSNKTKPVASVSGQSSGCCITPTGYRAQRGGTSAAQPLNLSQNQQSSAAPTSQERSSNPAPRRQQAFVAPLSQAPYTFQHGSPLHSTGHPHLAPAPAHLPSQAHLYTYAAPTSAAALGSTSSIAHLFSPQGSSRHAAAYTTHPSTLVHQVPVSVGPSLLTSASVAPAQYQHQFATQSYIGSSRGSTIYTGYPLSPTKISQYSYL

Turning to `Brc1c(Br)c(Br)c2n[nH]nc2c1Br`, the IC50 was 4.47 µM.

The term IC50 denotes the concentration that inhibits the measured activity by half.
